# Data published in patent US8895695B2, “Template-fixed beta-hairpin peptidomimetics with CXCR4 antagonizing activity” (priority 2003, dated 2014).
# Numbered stars: 1 amine (or outer) side, 2 acyl side, 3 side chain; on linkers, the order of the positions; unused ones are H or OH. Bridge positions count the residues as written; N and C are the ends. Square brackets hold non-standard residues; d marks the D form. Peptide text beside a SMILES is read from it. X1 = CC(C)CN(CCC[C@H](N[*:1])C(=O)[*:2])CC(C)C; 2Nal = N[C@@H](Cc1ccc2ccccc2c1)C(=O)O; Cit = NC(=O)NCCC[C@H](N)C(=O)O
# Key:
# [1] = test system: human red blood cells (hRBC); test: Hemolysis; assay type: cell-based
# Summary of the method: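 Washed fresh human erythrocytes (20% v/v, about 0.9×10^9 cells/ml final) incubated with peptide at 100 μM for 1 h at 37° C. Supernatant diluted 20-fold and OD540 read. Percent hemolysis relative to 0.1% Triton X-100 in H2O (100%), with PBS alone as 0%.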
# [2] = in vitro; conditions: human; for CC50 at 48 h: HELA cells (Acc57)
# Protocol: Each peptide concentration was assayed in triplicate. […] Wells were then washed once with PBS and subsequently 100 μl MTT reagent (0.5 mg/mL in medium RPMI1640 and, respectively, DMEM) was added to the wells. This was incubated at 37° C. for 2 hours and subsequently the medium was aspirated and 100 μl isopropanol was added to each well. […] For each concentration averages were calculated from triplicates. The percentage of growth was calculated as follows: (OD595peptide-OD595Tz-OD595Empty well)/(OD595Tz-OD595Empty well)×100% and was plotted for each peptide concentration.
# ‘CCR5’ cells were cultured in DMEM medium with 4500 mg/ml glucose, 10% fetal bovine serum (FBS), supplemented with 50 U/ml Penicillin and 50 μg/ml Streptomycin (Pen/Strept.). Hut/4-3 cells were maintained in RPMI medium, 10% FBS, supplemented with Pen/Strept. and 10 mM HEPES. HELA cells and CCRF-CEM cells were maintained in RPMI1640 plus 5% FBS, Pen/Strept and 2 mM L-Glutamine. Cos-7 cells were grown in DMEM medium with 4500 mg/ml glucose supplemented with 10% FCS, Pen/Strept. and 2 mM L-Glutamine. All cell lines were grown at 37° C. at 5% CO2.
# [3] = biological target: T1, CXCR4 (Homo sapiens, UniProt P61073); test: Ca2+-assay method 1: CXCR4-antagonizing activity; assay type: cell-based; set-up: expressed in transfected cells; conditions: method 1 (Ex. 1-53), CXCR4 transfected pre-B cells, Fura-2; read-out: IC50 (nM) Ca^2+ assay
# Protocol: 2.2. Ca^2+-Assay: CXCR4-Antagonizing Activity of the Peptides.
# The cells were washed free from Fura-2-AM with a platelet centrifuge and resuspended in 800 μl MSB containing 5 mM D-Glucose. The peptides to be administered were diluted to a 100 fold end concentration in MSB/0.2% PPL, and 8 μl were injected. […] Measurements were done under continuous stirring at 37° C. The signal intension was calibrated with 3 mM CaCl2/[…] lonomycin (maximal fura-2-acetoxymethylester saturation) and 10 μM MnCl2 (minimal Fura-2-acetoxymethylester saturation) and [Ca^2+]i-changes are presented in % fora-2-acetoxymethylester saturation. The rate of [Ca^2+]i-changes was calculated on the basis of the initial [Ca^2+]i-changes and plotted in dependence of chemokine concentration to obtain a sigmoidal curve and to determine the IC50 values.
# Osmolarity: 310 mOsm adjusted with NaOH or HCl, adjusted with H2O or PBS.
# MSB plus: 5 mM D-glucose in MSB (50 mg/50 mL).
# Fura 2-acetoxymethylester: 1 mM stock solution in dimethylsulfoxide.
# [4] = in vitro; assay type: in vitro ADME; conditions: plasma
# Protocol: 405 μl of plasma/albumin solution were placed in a polypropylene (PP) tube and spiked with 45 μl of compound from a 100 μM solution B, derived from 135 μl of PBS and 15 μl of 1 mM peptide in PBS, pH 7.4. 150 μl aliquots were transferred into individual wells of the 10 kDa filter plate (Millipore MAPPB 1010 Biomax membrane). For “0 minutes controls”: 270 μl of PBS were placed in a PP tube and 30 μl of stock solution B was added and vortexed. 150 μl of control solution was placed into one well of the filter plate and serves as “filtered control”.
# Further 150 μl of control solution were placed directly into a receiver well (reserved for filtrate) and serve as “not-filtered control”. The entire plate including evaporation lid was incubated for 60 min at 37° C. Plasma samples (rat plasma: Harlan Sera lab UK, human plasma: Blutspendezentrum Zürich) were centrifuged at least for 2 h at 4300 rpm (3500 g) and 15° C. in order to yield 100 μl filtrate. For “serum albumin”-samples (freshly prepared human albumin: Sigma A-4327, rat albumin: Sigma A-6272, all at 40 mg/ml concentration in PBS) approximately 1 hour of centrifugation is sufficient. The filtrates in the receiver PP plate were analysed by LC/MS as followes: Column: Jupiter C18 (Phenomenex), mobile phases: (A) 0.1% formic acid in water and (B) acetonitrile, gradient: 5%-100% (B) in 2 minutes, electrospray ionization, MRM detection (triple quadrupole). The peak areas were determined and triplicate values are averaged. The binding is expressed in percent of the (filtered and not-filtered time point 0 min) control 1 and 2 by: 100−(100*T60/T0). The average from these values is then calculated (see ref. 9 below).
# [5] = biological target: T1, CXCR4; test: Ca2+-assay method 2 (Flexstation, SDF-1 induced calcium mobilization); assay type: cell-based; set-up: expressed in transfected cells; host or cells: mouse pre-B cell line 300-19; conditions: method 2 (Ex. 54-160), mouse pre-B cell line 300-19 with human CXCR4, 10 nM SDF-1; read-out: IC50 (nM) Ca^2+ assay
# 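Throughout, for CC50: MTT reduction read as absorbance at 595 nm, blank-corrected and expressed as percent growth relative to the time-zero cell reading, triplicate wells per concentration.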
# 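Throughout, for GI50: MTT reduction read as absorbance at 595 nm, blank-corrected and expressed as percent growth relative to the time-zero cell reading, triplicate wells per concentration.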
# T1 sequence (P61073 whole entry): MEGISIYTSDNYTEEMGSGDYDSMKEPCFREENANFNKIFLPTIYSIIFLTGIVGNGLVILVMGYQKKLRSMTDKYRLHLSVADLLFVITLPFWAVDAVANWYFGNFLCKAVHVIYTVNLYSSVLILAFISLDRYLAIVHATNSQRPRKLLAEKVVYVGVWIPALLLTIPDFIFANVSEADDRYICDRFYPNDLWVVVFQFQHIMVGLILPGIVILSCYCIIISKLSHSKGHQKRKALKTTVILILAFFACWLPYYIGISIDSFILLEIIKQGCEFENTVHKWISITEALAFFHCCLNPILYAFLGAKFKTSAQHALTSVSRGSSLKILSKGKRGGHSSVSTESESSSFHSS
Compound,Hemolysis at 100 μM [1] [%],CC50 at 48 h [2] [µM],IC50 [3] [nM],half-life at 10 μM ([4]; human) [h],half-life at 10 μM ([4]; rat) [h],GI50 at 48 h [2] [µM],IC50 [5] [nM]
N=C(N)NCCC[C@@H]1NC(=O)[C@H](Cc2ccccc2)NC(=O)[C@H](CCCNC(N)=O)NC(=O)[C@H](CCCNC(=N)N)NC(=O)[C@H](Cc2ccc(O)cc2)NC(=O)[C@@H]2CCCN2C(=O)[C@H]2CCCN2C(=O)[C@H](CCCCN)NC(=O)[C@H](CCCNC(N)=O)NC(=O)[C@H](Cc2ccc(O)cc2)NC(=O)[C@H](Cc2ccccc2)NC(=O)[C@H](Cc2ccc3ccccc3c2)NC(=O)[C@H](CCCNC(=N)N)NC(=O)[C@H](CCCNC(=N)N)NC(=O)[C@H]2CCCN2C(=O)CNC1=O [compound 38] (cyclo(YR[Cit]FRG[dP]RR[2Nal]FY[Cit]K[dP]P)),0.3,348,720,–,–,–,–
CC(C)[C@@H]1NC(=O)[C@H](CCCNC(N)=O)NC(=O)[C@H](CCCNC(=N)N)NC(=O)[C@H](Cc2ccc(O)cc2)NC(=O)[C@@H]2CCCN2C(=O)[C@H]2CCCN2C(=O)[C@H](CCCCN)NC(=O)[C@H](CCCNC(N)=O)NC(=O)[C@H](Cc2ccc(O)cc2)NC(=O)[C@H](Cc2ccccc2)NC(=O)[C@H](Cc2ccc3ccccc3c2)NC(=O)[C@H](CCCNC(=N)N)NC(=O)[C@H](CCCNC(=N)N)NC(=O)[C@@H]2CCCN2C(=O)[C@H](CCCNC(N)=O)NC(=O)[C@H](CCCNC(=N)N)NC1=O [compound 31] (cyclo(YR[Cit]VR[Cit]PRR[2Nal]FY[Cit]K[dP]P)),0.1,82,1470,–,–,–,–
CC(C)[C@@H]1NC(=O)[C@H](Cc2ccc3ccccc3c2)NC(=O)[C@H](CCCNC(=N)N)NC(=O)[C@H](CCCNC(=N)N)NC(=O)[C@@H]2CCCN2C(=O)[C@H](CCCNC(N)=O)NC(=O)[C@H](CCCNC(=N)N)NC(=O)[C@H](Cc2ccccc2)NC(=O)[C@H](CCCNC(N)=O)NC(=O)[C@H](CCCNC(=N)N)NC(=O)[C@H](Cc2ccc(O)cc2)NC(=O)[C@@H]2CCCN2C(=O)[C@H]2CCCN2C(=O)[C@H](CCCCN)NC(=O)[C@H](CCCNC(N)=O)NC(=O)[C@H](Cc2ccc(O)cc2)NC1=O [compound 20] (cyclo(YR[Cit]FR[Cit]PRR[2Nal]VY[Cit]K[dP]P)),0.2,85,3730,–,–,–,–
CC(C)[C@@H]1NC(=O)[C@H](CCCNC(N)=O)NC(=O)[C@H](CCCNC(=N)N)NC(=O)[C@H](Cc2ccc(O)cc2)NC(=O)[C@@H]2CCCN2C(=O)[C@H]2CCCN2C(=O)[C@H](CCCCN)NC(=O)[C@H](CCCNC(N)=O)NC(=O)[C@H](Cc2ccc(O)cc2)NC(=O)[C@H](Cc2ccccc2)NC(=O)[C@H](Cc2ccc3ccccc3c2)NC(=O)[C@H](CCCNC(=N)N)NC(=O)[C@@H](CCCNC(=N)N)NC(=O)[C@H](CCCNC(=N)N)NC1=O [Ex. 1] (cyclo(YR[Cit]VR[dR]R[2Nal]FY[Cit]K[dP]P)),1.6,82,2280,–,–,–,–
N=C(N)NCCC[C@@H]1NC(=O)[C@H](CCCNC(=N)N)NC(=O)[C@H](Cc2ccccc2)NC(=O)[C@H](CCCNC(N)=O)NC(=O)[C@H](CCCNC(=N)N)NC(=O)[C@H](Cc2ccc(O)cc2)NC(=O)[C@@H]2CCCN2C(=O)[C@H]2CCCN2C(=O)[C@H](CCCCN)NC(=O)[C@H](CCCNC(N)=O)NC(=O)[C@H](Cc2ccc(O)cc2)NC(=O)[C@H](Cc2ccccc2)NC(=O)[C@H](Cc2ccc3ccccc3c2)NC(=O)[C@H](CCCNC(=N)N)NC1=O [compound 3] (cyclo(YR[Cit]FRRR[2Nal]FY[Cit]K[dP]P)),1.7,126,1000,–,–,–,–
CC(C)[C@@H]1NC(=O)[C@H](Cc2ccc3ccccc3c2)NC(=O)[C@H](CCCNC(=N)N)NC(=O)[C@H](CCCNC(=N)N)NC(=O)[C@@H]2CCCN2C(=O)[C@H](C(C)C)NC(=O)[C@H](CCCNC(=N)N)NC(=O)[C@H](Cc2ccccc2)NC(=O)[C@H](CCCNC(N)=O)NC(=O)[C@H](CCCNC(=N)N)NC(=O)[C@H](Cc2ccc(O)cc2)NC(=O)[C@@H]2CCCN2C(=O)[C@H]2CCCN2C(=O)[C@H](CCCCN)NC(=O)[C@H](CCCNC(N)=O)NC(=O)[C@H](Cc2ccc(O)cc2)NC1=O [compound 22] (cyclo(YR[Cit]FRVPRR[2Nal]VY[Cit]K[dP]P)),0,139,300,–,–,–,–
CC(C)[C@@H]1NC(=O)[C@H](Cc2ccc3ccccc3c2)NC(=O)[C@H](CCCNC(=N)N)NC(=O)[C@H](CCCNC(=N)N)NC(=O)[C@@H]2CCCN2C(=O)[C@H](Cc2ccccc2)NC(=O)[C@H](CCCNC(=N)N)NC(=O)[C@H](Cc2ccccc2)NC(=O)[C@H](CCCNC(N)=O)NC(=O)[C@H](CCCNC(=N)N)NC(=O)[C@H](Cc2ccc(O)cc2)NC(=O)[C@@H]2CCCN2C(=O)[C@H]2CCCN2C(=O)[C@H](CCCCN)NC(=O)[C@H](CCCNC(N)=O)NC(=O)[C@H](Cc2ccc(O)cc2)NC1=O [compound 24] (cyclo(YR[Cit]FRFPRR[2Nal]VY[Cit]K[dP]P)),0.7,108,850,–,–,–,–
CC(C)[C@@H]1NC(=O)[C@H](CCCNC(=N)N)NC(=O)[C@H](Cc2ccccc2)NC(=O)[C@H](CCCNC(N)=O)NC(=O)[C@H](CCCNC(=N)N)NC(=O)[C@H](Cc2ccc(O)cc2)NC(=O)[C@@H]2CCCN2C(=O)[C@H]2CCCN2C(=O)[C@H](CCCCN)NC(=O)[C@H](CCCNC(N)=O)NC(=O)[C@H](Cc2ccc(O)cc2)NC(=O)[C@H](Cc2ccccc2)NC(=O)[C@H](Cc2ccc3ccccc3c2)NC(=O)[C@H](CCCNC(=N)N)NC(=O)[C@H](CCCNC(=N)N)NC(=O)[C@@H]2CCCN2C1=O [compound 28] (cyclo(YR[Cit]FRVPRR[2Nal]FY[Cit]K[dP]P)),0.9,117,2680,–,–,–,–
CC(C)[C@@H]1NC(=O)[C@H](CCCNC(N)=O)NC(=O)[C@H](CCCNC(=N)N)NC(=O)[C@H](Cc2ccc(O)cc2)NC(=O)[C@@H]2CCCN2C(=O)[C@H]2CCCN2C(=O)[C@H](CCCCN)NC(=O)[C@H](CCCNC(N)=O)NC(=O)[C@H](Cc2ccc(O)cc2)NC(=O)[C@H](Cc2ccccc2)NC(=O)[C@H](Cc2ccc3ccccc3c2)NC(=O)[C@H](CCCNC(=N)N)NC(=O)[C@H](CCCNC(=N)N)NC(=O)[C@H]2CCCN2C(=O)[C@H](C(C)C)NC(=O)[C@H](CCCNC(=N)N)NC1=O [compound 32] (cyclo(YR[Cit]VRV[dP]RR[2Nal]FY[Cit]K[dP]P)),0.5,85,760,–,–,–,–
CC(C)[C@@H]1NC(=O)[C@H](Cc2ccc3ccccc3c2)NC(=O)[C@H](CCCNC(=N)N)NC(=O)[C@H](CCCNC(=N)N)NC(=O)[C@H]2CCCN2C(=O)[C@H](C(C)C)NC(=O)[C@H](CCCNC(=N)N)NC(=O)[C@H](Cc2ccccc2)NC(=O)[C@H](CCCNC(N)=O)NC(=O)[C@H](CCCNC(=N)N)NC(=O)[C@H](Cc2ccc(O)cc2)NC(=O)[C@@H]2CCCN2C(=O)[C@H]2CCCN2C(=O)[C@H](CCCCN)NC(=O)[C@H](CCCNC(N)=O)NC(=O)[C@H](Cc2ccc(O)cc2)NC1=O [compound 21] (cyclo(YR[Cit]FRV[dP]RR[2Nal]VY[Cit]K[dP]P)),0.6,114,550,–,–,–,–
CC(C)CN(CCC[C@@H]1NC(=O)[C@H]2CCCN2C(=O)CNC(=O)[C@H](CCCNC(=N)N)NC(=O)[C@@H]2CSSC[C@H](NC(=O)[C@H](Cc3ccc4ccccc4c3)NC(=O)[C@H](CCCNC(=N)N)NC1=O)C(=O)N[C@@H](Cc1ccc(O)cc1)C(=O)N[C@@H](CCCNC(N)=O)C(=O)N[C@@H](CCCCN)C(=O)N1CCC[C@@H]1C(=O)N1CCC[C@H]1C(=O)N[C@@H](Cc1ccc(O)cc1)C(=O)N[C@@H](CCCNC(=N)N)C(=O)N[C@@H](CCCNC(N)=O)C(=O)N2)CC(C)C [Ex. 124] (cyclo(YR[Cit]CRG[dP][X1]R[2Nal]CY[Cit]K[dP]P); disulfide 4-11),0,–,–,> 5,> 5,21,5.9
